7 molecules from patent publication US12668600B2 (Kumquat Biosciences Inc., priority 2023, dated 2026) can be followed below.

A value given as a limit tells only on which side of the number the result lay.

The term IC50 denotes the midpoint of a concentration-inhibition curve.

Holding throughout (assay type): biochemical
One assay addresses T1, KRAS G12D (Homo sapiens, UniProt P01116, G12D).
T1 construct: made in house; host or cells: E. coli, e.g. BL21 (DE3)
Briefly: HTRF KRAS-SOS1 interaction assay, KRAS G12D. The note with it: binned ≤2 μM / >2 μM, read-out: Inhibition of KRAS G12D (IC50). An outline of the steps: (§1)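 Read-out: HTRF ratio 665/620 nm after ≥10 min incubation of compound with GST-KRAS/anti-GST-Eu and His-hSOS1/anti-6His-XL665. Duplicate dose series, 10 μM down to 0.01 μM. Buffer HEPES pH 7.4, NaCl, DTT, BSA, Igepal.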
Background: Time-resolved FRET reads energy transfer from a long-lived donor to a nearby acceptor.

A further assay deals with T2, KRAS G12S (Homo sapiens, UniProt P01116, G12S).
T2 construct: made in house; host or cells: E. coli, e.g. BL21 (DE3)
Briefly: HTRF KRAS-SOS1 interaction assay, KRAS G12S. The following applies: binned ≤2 μM / >2 μM, read-out: Inhibition of KRAS G12S (IC50). The source says:
This assay can be also used to assess a selective inhibition or reduction of signaling output of a mutant Ras protein relative to a wildtype, or relative to a different mutant Ras protein. For example, the equilibrium interaction of wildtype KRAS or K-Ras mutant (e.g., wildtype or a mutant thereof) with SOS1 (e.g., hSOS1) can be assessed as a proxy or an indication for the ability of a subject compound to bind and inhibit Ras protein. The HTRF assay detects from (i) a fluorescence resonance energy transfer (FRET) donor (e.g., antiGST-Europium) that is bound to GST-tagged K-Ras mutant to (ii) a FRET acceptor (e.g., anti-6His-XL665) bound to a His-tagged hSOS1.
The assay buffer can contain ˜5 mM HEPES pH 7.4, ˜150 mM NaCl, ˜1 mM DTT, 0.05% BSA and 0.0025% (v/v) Igepal. A Ras working solution is prepared in an assay buffer containing typically a suitable amount of the protein construct (e.g., GST-tagged K-Ras mutant) and the FRET donor (e.g., antiGST-Eu (K) from Cisbio, France). A SOS1 working solution is prepared in an assay buffer containing suitable amount of the protein construct (e.g., His-hSOS1) and the FRET acceptor (e.g., anti-6His-XL665 from Cisbio, France). A suitable amount of the protein construct will depend on the range of activity or range of IC50 values being detected or under investigation. For detecting an IC50 within a range of 500 nM, the protein constructs of the same range of molarity can be utilized.
A fixed volume of DMSO with or without test compound is transferred into a 384-well plate. Ras working solution is added to all wells of the test plate. SOS1 working solution is added to all wells except for those that are subsequently filled with inhibitor control solution. Upon incubation for about 10 minutes or longer, the fluorescence is measured with a M1000Pro plate reader (Tecan) using HTRF detection (excitation 337 nm, emission 1:620 nm, emission 2:665 nm). Compounds are tested in duplicate at different concentrations (for example, 10 μM, 2.5 μM, 0.63 μM, 0.16 μM, 0.04 μM, 0.01 μM test compound). The ratiometric data (i.e., emission 2 divided by emission 1) is used to calculate IC50 values against Ras using GraphPad Prism (GraphPad software). Signaling output measured in terms of IC50 values can be obtained and a ratio of IC50 against one mutant relative to another mutant can be calculated.

The next assay deals with T3, KRAS G12V (Homo sapiens, UniProt P01116, G12V).
T3 construct: made in house; host or cells: E. coli, e.g. BL21 (DE3)
Briefly: HTRF KRAS-SOS1 interaction assay, KRAS G12V. The note with it: binned ≤2 μM / >2 μM, read-out: Inhibition of KRAS G12V (IC50). In a few lines:
as §1

The target of a further assay is T4, KRAS WT (Homo sapiens, UniProt P01116).
T4 construct: made in house; host or cells: E. coli, e.g. BL21 (DE3)
Briefly: HTRF KRAS-SOS1 interaction assay, wildtype KRAS. The following applies: binned ≤2 μM / >2 μM, read-out: Inhibition of KRAS WT (IC50). In a few lines: as §1

T3 sequence (P01116 1-188 isoform P01116-2 G12V): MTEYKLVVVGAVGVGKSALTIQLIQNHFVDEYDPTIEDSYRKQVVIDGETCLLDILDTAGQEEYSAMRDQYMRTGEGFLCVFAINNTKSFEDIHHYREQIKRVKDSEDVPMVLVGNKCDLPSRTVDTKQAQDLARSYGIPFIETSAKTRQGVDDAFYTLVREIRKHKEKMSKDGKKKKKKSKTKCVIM
T1 sequence (P01116 1-188 isoform P01116-2 G12D): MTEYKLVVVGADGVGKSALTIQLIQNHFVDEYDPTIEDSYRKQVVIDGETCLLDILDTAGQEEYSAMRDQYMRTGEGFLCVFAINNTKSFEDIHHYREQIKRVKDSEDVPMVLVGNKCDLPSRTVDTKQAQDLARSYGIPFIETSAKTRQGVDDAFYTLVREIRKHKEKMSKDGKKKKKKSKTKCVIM
T4 sequence (P01116 1-188 isoform P01116-2): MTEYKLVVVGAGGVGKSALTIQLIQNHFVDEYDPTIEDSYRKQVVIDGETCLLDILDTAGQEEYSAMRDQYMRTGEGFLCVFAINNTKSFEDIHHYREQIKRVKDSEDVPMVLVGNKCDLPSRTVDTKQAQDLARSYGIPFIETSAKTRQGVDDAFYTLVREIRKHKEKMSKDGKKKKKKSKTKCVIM
T2 sequence (P01116 1-188 isoform P01116-2 G12S): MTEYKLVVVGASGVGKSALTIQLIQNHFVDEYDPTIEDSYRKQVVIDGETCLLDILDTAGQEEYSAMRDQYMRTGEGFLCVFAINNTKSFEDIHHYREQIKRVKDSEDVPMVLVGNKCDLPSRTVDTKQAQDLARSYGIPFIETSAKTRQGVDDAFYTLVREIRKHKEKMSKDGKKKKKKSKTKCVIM

In the case of `N#Cc1c(N)sc2c(F)ccc(-c3c(C(F)(F)F)c4c5c(nc(OC[C@@]67CCCN6C[C@H](F)C7)nc5c3F)N([C@H](CCC3CC(F)(F)C3)c3cccnc3N)CCO4)c12` (single isomer, unassigned) [Compound 689], the IC50 on KRAS G12D is above 2000 nM; at KRAS G12S it was at most 2000 nM; on KRAS G12V, at most 2000 nM; on KRAS WT it was at most 2000 nM.

As for `C[C@H](c1cccnc1Cl)N1CCOc2c(C(F)(F)F)c(-c3ccc(F)c4sc(N)c(C#N)c34)c(F)c3nc(OC[C@@]45CCCN4C[C@H](F)C5)nc1c23` [Compound 730, 2-amino-4-(4-((R)-1-(2-chloropyridin-3-yl)ethyl)-10-fluoro-2-(((2R,7aS)-2-fluorotetrahydro-1H-pyrrolizin-7a(5H)-yl)methoxy)-8-(trifluoromethyl)-5,6-dihydro-4H-[1,4]oxazepino[5,6,7-de]quinazolin-9-yl)-7-fluorobenzo[b]thiophene-3-carbonitrile], the IC50 on KRAS G12D, at KRAS G12S, at KRAS G12V and at KRAS WT was at most 2000 nM throughout.

Regarding `C=C1CN2CC(=C)CC2(COc2nc3c4c(c(C(F)(F)F)c(-c5ccc(F)c6sc(N)c(C#N)c56)c(F)c4n2)OCCN3[C@H](C)c2cccnc2N)C1` (single isomer, unassigned) [Compound 775], the IC50 on KRAS G12D, at KRAS G12S, on KRAS G12V and at KRAS WT was at most 2000 nM in each case.

Consider `CCN1CC[C@H](OC)[C@H]1[C@H](C)Oc1nc2c3c(c(C(F)(F)F)c(-c4ccc(F)c5sc(N)c(C#N)c45)c(F)c3n1)OCCN2[C@H](C)c1cccnc1N` [Compound 896, 2-amino-4-(4-((R)-1-(2-aminopyridin-3-yl)ethyl)-2-((S)-1-((2R,3S)-1-ethyl-3-methoxypyrrolidin-2-yl)ethoxy)-10-fluoro-8-(trifluoromethyl)-5,6-dihydro-4H-[1,4]oxazepino[5,6,7-de]quinazolin-9-yl)-7-fluorobenzo[b]thiophene-3-carbonitrile], for which the IC50 at KRAS G12D, on KRAS G12S, on KRAS G12V and at KRAS WT was at most 2000 nM throughout.

`C[C@H](c1cccnc1N)N1CCOc2c(C(F)(F)F)c(-c3ccc(F)c4sc(N)c(C#N)c34)c(F)c3nc(OCC4(CN5CCC(F)(F)CC5)CC4)nc1c23` [Compound 778, 2-amino-4-(4-((R)-1-(2-aminopyridin-3-yl)ethyl)-2-((1-((4,4-difluoropiperidin-1-yl)methyl)cyclopropyl)methoxy)-10-fluoro-8-(trifluoromethyl)-5,6-dihydro-4H-[1,4]oxazepino[5,6,7-de]quinazolin-9-yl)-7-fluorobenzo[b]thiophene-3-carbonitrile]: the IC50 on KRAS G12D, at KRAS G12S, at KRAS G12V and at KRAS WT was at most 2000 nM each time.

For the molecule `C#Cc1c(F)ccc2cc(O)cc(-c3nc4c5c(nc(OC[C@@]67CCCN6C[C@H](F)C7)nc5c3F)N([C@H](C)c3cccnc3N)CCO4)c12` (single isomer, unassigned) [Compound 862], the concentration for half-maximal inhibition (IC50) at KRAS G12D, on KRAS G12S, on KRAS G12V and on KRAS WT was at most 2000 nM throughout.

Turning to `C=C(F)[C@@H](c1cccnc1N)N1CCOc2c(Cl)c(-c3ccc(F)c4sc(N)c(C#N)c34)c(F)c3nc(OC[C@@]45CCCN4C[C@H](F)C5)nc1c23` [Compound 601, 2-amino-4-(4-((R)-1-(2-aminopyridin-3-yl)-2-fluoroallyl)-8-chloro-10-fluoro-2-(((2R,7aS)-2-fluorotetrahydro-1H-pyrrolizin-7a(5H)-yl)methoxy)-5,6-dihydro-4H-[1,4]oxazepino[5,6,7-de]quinazolin-9-yl)-7-fluorobenzo[b]thiophene-3-carbonitrile], the concentration for half-maximal inhibition (IC50) at KRAS G12D, on KRAS G12S, on KRAS G12V and on KRAS WT was at most 2000 nM throughout.
